Active and inactive are the calls of the source. The rule behind the calls is not given here.
Tested on: rodent carcinogenicity bioassays, tumor incidence
Assay: CCRIS carcinogenicity studies
How it was run: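 NCI-built, expert-reviewed records of carcinogenicity and related test outcomes (mutagenicity, tumor promotion/inhibition) compiled from published and report sources, historical span 1985-2011, not updated.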

CCNc1nc(Cl)nc(NC(C)C)n1
carcinogen call (Species: RAT, Strain/Sex: F344/FEMALE, Route: ORAL, Dose: 0, 10, 70, 200, 400 PPM IN DIET FOR 24 MO (STUDY DURATION: 24 MO), Dose: 0, 10, 70, 200, 400 PPM IN DIET FOR 24 MO (STUDY DURATION: 24 MO)): inactive; negative | carcinogen call (Species: RAT, Strain/Sex: F344/LATI/FEMALE, Route: ORAL, Dose: 0, 500, 1000 PPM TECHNICAL GRADE IN FEED FOR 8 WK THEN 0, 375, 750 PPM FOR LIFE SPAN (STUDY DURATION: LIFE SPAN), Dose: 0, 500, 1000 PPM TECHNICAL GRADE IN FEED FOR 8 WK THEN 0, 375, 750 PPM FOR LIFE SPAN (STUDY DURATION: LIFE SPAN), Tumor Site: Type of Lesion: UTERUS: ADENOCARCINOMA, HEMATOPOIETIC SYSTEM: LEUKEMIA OR LYMPHOMA): active; positive | carcinogen call (Species: RAT, Strain/Sex: F344/LATI/MALE, Route: ORAL, Dose: 0, 500, 1000 PPM TECHNICAL GRADE IN FEED FOR 8 WK THEN 0, 375, 750 PPM FOR LIFE SPAN (STUDY DURATION: LIFE SPAN), Dose: 0, 500, 1000 PPM TECHNICAL GRADE IN FEED FOR 8 WK THEN 0, 375, 750 PPM FOR LIFE SPAN (STUDY DURATION: LIFE SPAN), Tumor Site: Type of Lesion: MAMMARY GLAND: BENIGN TUMOR): active; positive | carcinogen call (Species: RAT, Strain/Sex: SPRAGUE-DAWLEY/FEMALE, Route: ORAL, Dose: 0, 70, 400 PPM IN DIET FOR 24 MO (STUDY DURATION: 24 MO), Dose: 0, 70, 400 PPM IN DIET FOR 24 MO (STUDY DURATION: 24 MO)): inactive; negative

c1ccc2cc3c(cc2c1)-c1cccc2cccc-3c12
carcinogen call (Species: MOUSE, Route: DERMAL, Tumor Site: Type of Lesion: INTEGUMENTARY SYSTEM (SKIN)): active; positive | carcinogen call (Species: RAT, Strain/Sex: OSBORNE-MENDEL/FEMALE, Route: LUNG IMPLANT, Dose: 0, 0.16, 0.83, 4.15 MG IN BEESWAX/TRIOCTANOIN (STUDY DURATION: LIFETIME), Dose: 0, 0.16, 0.83, 4.15 MG IN BEESWAX/TRIOCTANOIN (STUDY DURATION: LIFETIME), Tumor Site: Type of Lesion: LUNG: EPIDERMOID CARCINOMA): active; positive

O=C(O)[C@@H]1[C@H](C(=O)O)[C@H]2CC[C@@H]1O2
carcinogen call (Species: Mouse, Strain/Sex: Crl, CD-1(ICR)BR/Male and female (60/Group), Route: Oral, Dose: 0, 750, 1500 ppm of endothal disodium, purity 19-23.1%, in diet for at least 78 wk, study duration 18 mo, Dose: 0, 750, 1500 ppm of endothal disodium, purity 19-23.1%, in diet for at least 78 wk, study duration 18 mo, Tumor Site: Type of Lesion: Duodenum and jejunum: increased incidence of tumors in high dose group): active; positive (results not described separately for each sex) | carcinogen call (Species: Rat, Strain/Sex: Cr, CD(SD)BR/Female (62/group), Route: Oral, Dose: Nominal concentrations of 0, 300, 900, 1800 ppm in diet for 104 wk, study duration 104 wk (actual concentration about 18, 300, 900, Tumor Site: Type of Lesion: Uterus: endometrial stromal tumors (0, 0, 4/60, 5/59)): active; positive (ca department of pesticide regulation evaluator described as a possibl | carcinogen call (Species: Rat, Strain/Sex: Cr, CD(SD)BR/Male (62/group), Route: Oral, Dose: Nominal concentrations of 0, 300, 900, 1800 ppm in diet for 104 wk, study duration 104 wk (actual concentration about 18, 300, 900): inactive; negative

CC[C@H]1NC(=O)[C@@H]2[C@H](Cl)[C@H](Cl)CN2C(=O)[C@@H](CO)NC(=O)C[C@H](c2ccccc2)NC(=O)[C@H](CO)NC1=O
carcinogen call (Species: MOUSE, Strain/Sex: DDNI/MALE, Route: ORAL, Dose: 0, 40, 60 UG IN DIET, 1/D FOR LIFE, Dose: 0, 40, 60 UG IN DIET, 1/D FOR LIFE, Tumor Site: Type of Lesion: HEMATOPOIETIC SYSTEM: RETICULOENDOTHELIOMA, LIVER: CARCINOMA, HEPATOCELLULAR ADENOMA): active; positive

C=C(Cl)CSC(=S)N(CC)CC
carcinogen call (Species: MOUSE, Strain/Sex: B6C3F1/FEMALE, Route: ORAL, Dose: 0, 908, 1815 PPM TWA, IN DIET FOR 74 WK (STUDY DURATION: 90-91 WK), Dose: 0, 908, 1815 PPM TWA, IN DIET FOR 74 WK (STUDY DURATION: 90-91 WK), Tumor Site: Type of Lesion: MAMMARY GLAND: ADENOCARCINOMA OR SQUAMOUS METAPLASIA): active; positive | carcinogen call (Species: MOUSE, Strain/Sex: B6C3F1/MALE, Route: ORAL, Dose: 0, 949, 1897 PPM TWA, IN DIET FOR 74 WK (STUDY DURATION: 91 WK), Dose: 0, 949, 1897 PPM TWA, IN DIET FOR 74 WK (STUDY DURATION: 91 WK), Tumor Site: Type of Lesion: LUNG: ALVEOLAR/BRONCHIOLAR ADENOMA OR ALVEOLAR/BRONCHIOLAR CARCINOMA): active; positive | carcinogen call (Species: RAT, Strain/Sex: OSBORNE-MENDEL/FEMALE, Route: ORAL, Dose: 0, 250, 404 PPM TWA, IN DIET FOR 63-78 WK (STUDY DURATION: 104-111 WK), Dose: 0, 250, 404 PPM TWA, IN DIET FOR 63-78 WK (STUDY DURATION: 104-111 WK), Tumor Site: Type of Lesion: MAMMARY GLAND: ADENOCARCINOMA): active; positive | carcinogen call (Species: RAT, Strain/Sex: OSBORNE-MENDEL/MALE, Route: ORAL, Dose: 0, 250, 410 PPM TWA, IN DIET FOR 64-78 WK (STUDY DURATION: 103-111 WK), Dose: 0, 250, 410 PPM TWA, IN DIET FOR 64-78 WK (STUDY DURATION: 103-111 WK), Tumor Site: Type of Lesion: STOMACH: PAPILLOMA, SQUAMOUS CELL PAPILLOMA OR SQUAMOUS CELL CARCINOMA): active; positive

[Ni]=[Te]
carcinogen call (Species: RAT, Strain/Sex: F344/MALE, Route: INTRAMUSCULAR, Tumor Site: Type of Lesion: INJECTION SITE: SARCOMA): active; positive

ClC1C(Cl)C(Cl)C(Cl)C(Cl)C1Cl (stereo not drawn)
carcinogen call (Species: MOUSE, Strain/Sex: B6C3F1/FEMALE, Route: ORAL, Dose: 0, 80, 160 PPM IN DIET FOR 80 WK (STUDY DURATION: 90-91 WK), Dose: 0, 80, 160 PPM IN DIET FOR 80 WK (STUDY DURATION: 90-91 WK)): inactive; negative | carcinogen call (Species: MOUSE, Strain/Sex: CF-1/MALE,FEMALE, Route: ORAL, Dose: 200 MG/KG IN DIET, Tumor Site: Type of Lesion: LIVER: BENIGN TUMOR OR MALIGNANT TUMOR): active; positive | carcinogen call (Species: MOUSE, Strain/Sex: CF-1/MALE,FEMALE, Route: ORAL, Dose: 400 MG/KG IN DIET, Tumor Site: Type of Lesion: LIVER: BENIGN TUMOR OR MALIGNANT TUMOR): active; positive | carcinogen call (Species: MOUSE, Strain/Sex: DD/MALE, Route: ORAL, Dose: 0, 6.6, 66, 660 PPM IN BASAL DIET UNTIL SACRIFICE AT 24 WK (STUDY DURATION: 24 WK), Dose: 0, 6.6, 66, 660 PPM IN BASAL DIET UNTIL SACRIFICE AT 24 WK (STUDY DURATION: 24 WK), Tumor Site: Type of Lesion: LIVER: HEPATOMA): active; positive | carcinogen call (Species: MOUSE, Strain/Sex: MALE,FEMALE, Route: ORAL, Tumor Site: Type of Lesion: LIVER: BENIGN TUMOR OR MALIGNANT TUMOR): active; positive | carcinogen call (Species: RAT, Strain/Sex: OSBORNE-MENDEL/FEMALE, Route: ORAL, Dose: 0, 135, 270 PPM TWA, IN DIET FOR 80 WK (STUDY DURATION: 108-110 WK), Dose: 0, 135, 270 PPM TWA, IN DIET FOR 80 WK (STUDY DURATION: 108-110 WK)): inactive; negative | carcinogen call (Species: RAT, Strain/Sex: OSBORNE-MENDEL/MALE, Route: ORAL, Dose: 0, 236, 472 PPM TWA, IN DIET FOR 80 WK (STUDY DURATION: 109-110 WK), Dose: 0, 236, 472 PPM TWA, IN DIET FOR 80 WK (STUDY DURATION: 109-110 WK)): inactive; negative | carcinogen call (Species: Rat, Strain/Sex: Wistar/Female (50/Group), Route: Oral, Dose: 0, 0.06, 0.57, 5.6, 23.1 mg/kg/day of 99.5-99.7% lindane in diet for 18 mo, study duration 18 mo, Dose: 0, 0.06, 0.57, 5.6, 23.1 mg/kg/day of 99.5-99.7% lindane in diet for 18 mo, study duration 18 mo): inactive; negative | carcinogen call (Species: Rat, Strain/Sex: Wistar/Male (50/Group), Route: Oral, Dose: 0, 0.05, 0.45, 4.5, 18.7 mg/kg/day of 99.5-99.7% lindane in diet for 18 mo, study duration 18 mo, Dose: 0, 0.05, 0.45, 4.5, 18.7 mg/kg/day of 99.5-99.7% lindane in diet for 18 mo, study duration 18 mo): inactive; negative

CC(C)N1C(=O)c2ccccc2NS1(=O)=O
carcinogen call (Species: Mouse, Strain/Sex: B6C3F1/Female (70/sex/group), Route: Oral, Dose: 0, 100, 400, 2000 ppm in diet for 2 yr, Dose: 0, 100, 400, 2000 ppm in diet for 2 yr): inactive; negative; purity 93.3% | carcinogen call (Species: Mouse, Strain/Sex: B6C3F1/Male (70/sex/group), Route: Oral, Dose: 0, 100, 400, 2000 ppm in diet for 2 yr, Dose: 0, 100, 400, 2000 ppm in diet for 2 yr, Tumor Site: Type of Lesion: Liver: Combined hepatocellular adenoma and carcinoma (13/49 in controls and 22/49 at highest dose)): active; positive; purity 93.3% | carcinogen call (Species: Rat, Strain/Sex: Fischer 344/DU CRJ/Female (70/sex/group), Route: Oral, Dose: 0, 200, 800, 4000 ppm in diet for 2 yr, Dose: 0, 200, 800, 4000 ppm in diet for 2 yr): inactive; negative; purity 93.3% | carcinogen call (Species: Rat, Strain/Sex: Fischer 344/DU CRJ/Male (70/sex/group), Route: Oral, Dose: 0, 200, 800, 4000 ppm in diet for 2 yr, Dose: 0, 200, 800, 4000 ppm in diet for 2 yr): inactive; negative; purity 93.3%

Source: PubChem BioAssay AID1259411 (Chemical Carcinogenesis Research Information System (CCRIS), 2018)
